From ChEMBL document CHEMBL1145136, “Molecular determinants of steroid inhibition for the mouse constitutive androstane receptor” (J Med Chem, 2003) come the findings set out here.

The target in one series is T1, mouse constitutive androstane receptor (mCAR, NR1I3) (Mus musculus, UniProt O35627).
T1 sequence (O35627 whole entry): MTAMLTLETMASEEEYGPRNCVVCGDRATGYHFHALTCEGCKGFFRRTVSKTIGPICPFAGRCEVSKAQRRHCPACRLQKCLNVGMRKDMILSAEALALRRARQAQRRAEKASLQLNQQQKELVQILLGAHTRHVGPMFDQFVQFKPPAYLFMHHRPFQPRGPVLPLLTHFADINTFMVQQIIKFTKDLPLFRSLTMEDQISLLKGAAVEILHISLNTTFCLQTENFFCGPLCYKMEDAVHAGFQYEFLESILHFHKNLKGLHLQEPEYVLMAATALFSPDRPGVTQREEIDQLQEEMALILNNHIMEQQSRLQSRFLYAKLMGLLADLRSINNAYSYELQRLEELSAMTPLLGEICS
The experiment in a line: Inhibition of mouse constitutive androstane receptor (mCAR) activity at 10 uM was determined as percent remaining activity. As to conditions: read-out: Remaining activity.
Consider `C[C@@]12CCC[C@H]1[C@@H]1CC[C@@H]3C[C@H](O)CC[C@]3(C)[C@H]1CC2`, for which the activity at 10 µM stood at 4%.
The same measure, in the same setting: under `C[C@@H]1C[C@H]2[C@@H]3CCC4=CC(=O)C=C[C@]4(C)[C@@]3(F)[C@@H](O)C[C@]2(C)[C@@]1(O)C(=O)CO` [DEXAMETHASONE] stands 75%; under `C[C@]12CCC(=O)C=C1CCC1[C@@H]2[C@@H](O)C[C@@]2(C)[C@H]1CC[C@]2(O)C(=O)CO` (single isomer, unassigned) [HYDROCORTISONE], 68%.
Still for that read-out and setting: as for `CC12CC[C@H]3[C@@H](CC[C@@H]4CCCCC43C)[C@@H]1CCC2=O` (stereo partly specified), the figure is 45%.
On to `CC12CCC3C(C1CCC2=O)[C@H](O)CC1=CC(=O)CCC13C` (stereo partly specified), for which the activity at 10 µM was 97%.
On the same count and under the same terms, under `CC12CC[C@H]3[C@@H](CC[C@H]4CC(=O)CCC43C)[C@@H]1CCC2=O` (stereo partly specified) stands 34%.
Same read-out and setting: under `CC12CC[C@@H](O)C[C@@H]1CC[C@@H]1[C@@H]2CCC2(C)[C@@H](O)CC[C@@H]12` (stereo partly specified) stands 63%; under `CC12CCC(=O)C=C1CCC1C2CCC2(C)C1CC[C@@H]2C(=O)O` (stereo partly specified), 81%.
Same read-out and setting: under `CCC1CC[C@H]2[C@@H]3CC[C@H]4CC(=O)CCC4(C)[C@H]3CCC12C` (stereo partly specified) stands 52%; under `CC12CCC3C(C[C@@H](O)C4=CC(=O)CCC43C)C1CCC2=O` (stereo partly specified), 89%.
Regarding `CC12C=CCC1C1CC[C@H]3C[C@H](O)CCC3(C)C1CC2` (stereo partly specified), the activity at 10 µM was 4%.
For `C[C@]12CCC(=O)C[C@@H]1CC[C@@H]1[C@@H]2CC[C@]2(C)[C@@H](O)CC[C@@H]12` [STANOLONE], the activity at 10 µM worked out at 69%.
Still for that read-out and setting: as for `C[C@]12CCC(=O)C=C1CC[C@@H]1[C@@H]2[C@@H](O)C[C@]2(C)C(=O)CC[C@@H]12`, the figure is 83%; as for `CC12CCC3C(CC[C@H]4CC(=O)C=CC34C)C1CCC2=O` (stereo partly specified), 90%; as for `C[C@]12CC[C@H]3[C@@H](CCC4=CC(=O)CC[C@@]43C)[C@@H]1CC[C@H]2O` [EPITESTOSTERONE], 73%.
As to `CC12CCC3C(CCC4=CC(=O)[C@H](O)CC43C)C1CCC2=O` (stereo partly specified), the activity at 10 µM is 41%.
On to `CC12C=CCC1C1CC[C@H]3C[C@@H](O)CCC3(C)C1CC2` (stereo partly specified), for which the activity at 10 µM worked out at 28%.
The same measure, in the same setting: under `CC(=O)[C@H]1CC[C@H]2[C@@H]3CC[C@H]4CC(=O)CC[C@]4(C)[C@H]3CC[C@]12C` stands 73%.
Regarding `CC(=O)[C@H]1CC[C@H]2[C@@H]3CC[C@@H]4CC(=O)CC[C@]4(C)[C@H]3CC[C@]12C`, the activity at 10 µM came out at 20%.
Same read-out and setting: under `CC12CCC3C(CCC4=C[C@H](O)CCC43C)C1CCC2=O` (stereo partly specified) stands 66%; under `CC12CCC3C(C[C@H](O)C4=CC(=O)CCC43C)C1CCC2=O` (stereo partly specified), 81%.
As to `C[C@]12C=CC(=O)C=C1CC[C@@H]1[C@@H]2CC[C@]2(C)C(=O)CC[C@@H]12` [ANDROSTENEDONE], the activity at 10 µM stood at 89%.
Same read-out and setting: under `CC12C=CCC1C1CC[C@H]3CC(=O)CCC3(C)C1CC2` (stereo partly specified) stands 5%.
On the same count and under the same terms, as for `CC(=O)[C@H]1CC[C@H]2[C@@H]3CC=C4C[C@@H](O)CC[C@]4(C)[C@H]3CC[C@]12C` [PREGNENOLONE], the figure is 95%.
For the molecule `CC12CC[C@@H]3C4CCC(=O)C[C@@H]4CC[C@H]3[C@@H]1CCC2=O` (stereo partly specified), the activity at 10 µM was determined as 80%.
On the same count and under the same terms, as for `C[C@]12CCC(=O)C=C1CCC1[C@@H]2C(=O)C[C@@]2(C)[C@H]1CC[C@]2(O)C(=O)CO` (single isomer, unassigned) [CORTISONE], the figure is 80%; as for `CC12CCC(=O)C[C@@H]1CC[C@@H]1[C@@H]2CCC2(C)[C@@H](O)CC[C@@H]12` (stereo partly specified), 53%.
On to `C[C@]12CC[C@H](O)CC1=CC[C@@H]1[C@@H]2CC[C@]2(C)C(=O)CC[C@@H]12` [PRASTERONE], for which the activity at 10 µM came out at 71%.
Still for that read-out and setting: as for `CC12C=CCC1C1CCC3=CC(=O)CCC3(C)C1CC2` (stereo unspecified), the figure is 7%; as for `CC12CCC3C(CCC4=CC(=O)CCC43C)C1C[C@@H](O)C2=O` (stereo partly specified), 62%; as for `CC12CC[C@@H]3C4CC[C@@H](O)C[C@@H]4CC[C@H]3[C@@H]1CCC2=O` (stereo partly specified), 91%.
Still for that read-out and setting: under `C[C@@]12CCC[C@H]1[C@@H]1CC[C@H]3C[C@H](O)CC[C@]3(C)[C@H]1CC2` stands 4%; under `C[C@]12C[C@H](O)[C@H]3[C@@H](CCC4=CC(=O)CC[C@@]43C)[C@@H]1CC[C@@H]2C(=O)CO` [CORTICOSTERONE], 80%; under `CC12CCC3C(CC[C@H]4CC=CCC34C)C1CCC2=O` (stereo partly specified), 42%.
On to `C[C@]12CCC(=O)C(O)=C1CC[C@@H]1[C@@H]2CC[C@]2(C)C(=O)CC[C@@H]12` [FORMESTANE], for which the activity at 10 µM was found to be 53%.
The same measure, in the same setting: as for `C[C@]12CC[C@H]3[C@@H](CCC4=CC(=O)CC[C@@]43C)[C@@H]1CC[C@@H]2C(=O)CO` [DESOXYCORTICOSTERONE], the figure is 58%.
For the molecule `CC12CCC[C@H]1[C@@H]1CC[C@H]3CC(=O)CCC3(C)[C@H]1CC2` (stereo partly specified), the activity at 10 µM came out at 12%.
Take `C[C@@]12CCC[C@H]1[C@@H]1CCc3cc(O)ccc3[C@H]1CC2`: the activity at 10 µM came out at 56%.
The same measure, in the same setting: under `CC(=O)[C@H]1CC[C@H]2[C@@H]3CC[C@H]4C[C@H](O)CC[C@]4(C)[C@H]3CC[C@]12C` [BREXANOLONE] stands 19%; under `C[C@]12CC[C@H]3[C@@H](CCC4=CC(=O)CC[C@@]43C)[C@@H]1CC[C@@H]2O` [TESTOSTERONE], 78%; under `C[C@]12CCC(=O)C=C1CC[C@@H]1[C@@H]2CC[C@]2(C)C(=O)CC[C@@H]12` [ANDROSTENEDIONE], 56%.

The next series addresses T2, Nuclear receptor subfamily 1 group I member 3 (Mus musculus, UniProt O35627).
T2 sequence (O35627 whole entry): T1 sequence (O35627 whole entry)
The series can be described thus: Inhibitory concentration against mammalian m-constitutive androstane receptor (mCAR) activity.
Details: not given
Broadly, the IC50 is the concentration that inhibits the measured activity by half. Read a low IC50 as greater potency. For `C[C@]12CC[C@@H](O)C[C@@H]1CC[C@@H]1[C@@H]2CC[C@]2(C)C=CC[C@@H]12` [ANDROSTENOL], the midpoint of inhibition, the IC50, lay at 0.25 µM.
Still for that read-out and setting: as for `C[C@]12CC[C@H]3[C@@H](CCC4=CC(=O)CC[C@@]43C)[C@@H]1CC[C@@H]2O` [TESTOSTERONE], the figure is 30 µM.

Another series addresses T2, Nuclear receptor subfamily 1 group I member 3. The experiment in a line: Inhibitory concentration against mouse constitutive androstane receptor (mCAR) activity was determined as pIC50.
Details: not given
For `CC12CC[C@H]3[C@@H](CC[C@H]4CC(=O)CCC43C)[C@@H]1CCC2=O` (stereo partly specified), inhibition was half-maximal at 5.01 µM (IC50).
Still for that read-out and setting: under `CC12CCC(=O)C=C1CCC1C2CCC2(C)C1CC[C@@H]2C(=O)O` (stereo partly specified) stands 39.8 µM.
Same read-out and setting: under `CC12C=CCC1C1CCC3=CC(=O)CCC3(C)C1CC2` (stereo unspecified) stands 0.794 µM.
